The target of this test is T1, P2X4 (Homo sapiens, UniProt Q99571).
T1 sequence (Q99571 1-388): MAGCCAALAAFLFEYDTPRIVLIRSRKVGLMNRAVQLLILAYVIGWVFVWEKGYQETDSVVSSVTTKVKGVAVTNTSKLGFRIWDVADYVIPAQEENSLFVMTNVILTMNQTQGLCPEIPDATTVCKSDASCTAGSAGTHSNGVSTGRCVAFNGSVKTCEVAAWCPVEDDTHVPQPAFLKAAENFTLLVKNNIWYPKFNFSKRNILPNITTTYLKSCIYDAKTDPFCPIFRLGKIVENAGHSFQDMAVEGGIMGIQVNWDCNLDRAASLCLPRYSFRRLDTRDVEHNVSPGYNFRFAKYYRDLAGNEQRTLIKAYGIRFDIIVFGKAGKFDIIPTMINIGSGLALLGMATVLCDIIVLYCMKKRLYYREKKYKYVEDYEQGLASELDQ
Kind of test: Assay B: human P2X4 receptor cell line, mitochondrial photina luminescence (agonist Bz-ATP at EC50). Also noted: host or cells: HEK 293 (recombinant, constitutively expressing; with mitochondrial photina in Assay B). Particulars: HEK human P2X4 cell line, photina luminescence, agonist Bz-ATP at EC50, average; for Emax: read-out: human P2X4 Assay B avg Efficacy. It counts as cell-based. The method in brief:
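Recombinant cell line constitutively expressing human P2X4 and mitochondrial photina photoprotein, reconstituted with coelenterazine. Receptor stimulated with Bz-ATP at EC50; calcium influx read immediately as luminescence.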

Where “and” joins values, the source holds several entries; their conditions need not be identical. Equal entries are not always repeated. Where only a bound is given, the exact number is not on record here.

What is called IC50 is the concentration that gives 50% inhibition. In the case of `NS(=O)(=O)c1cc(NC(=O)Cc2ccccc2OCCO)ccc1Oc1cccc(Cl)c1` [Example 213, N-[4-(3-Chlorophenoxy)-3-sulfamoylphenyl]-2-[2-(2-hydroxyethoxy)phenyl]acetamide], the IC50 came out at 818 nM and the Emax was 61%.

As to `NS(=O)(=O)c1cc(NC(=O)Cc2ccccc2)ccc1OC1COC1` [Example 215, N-[4-(Oxetan-3-yloxy)-3-sulfamoylphenyl]-2-phenylacetamide], the IC50 amounted to 1510 nM and the Emax is 68%.

For the compound `NS(=O)(=O)c1cc(NC(=O)Cc2ccccc2Cl)ccc1OC1COC1` [Example 216, 2-(2-Chlorophenyl)-N-[4-(oxetan-3-yloxy)-3-sulfamoylphenyl]acetamide], the IC50 was determined as 3350 nM and the Emax turned out to be 45%.

On to `NS(=O)(=O)c1cc(NC(=O)Cc2ccccc2)ccc1OC1CCCC1` [Example 217, N-[4-(Cyclopentyloxy)-3-sulfamoylphenyl]-2-phenylacetamide], for which the half-inhibitory concentration (IC50) was found to be 4030 nM and the Emax worked out at 67%.

Turning to `NS(=O)(=O)c1cc(NC(=O)Cc2ccccc2Cl)ccc1OC1CCCC1` [Example 218, 2-(2-Chlorophenyl)-N-[4-(cyclopentyloxy)-3-sulfamoylphenyl]acetamide], the IC50 turned out to be 248 nM and the Emax was determined as 80%.

As for `CN1CCCC(Oc2ccc(NC(=O)Cc3ccccc3)cc2S(N)(=O)=O)C1` (stereo not shown) [Example 219, N-{4-[(1-Methylpiperidin-3-yl)oxy]-3-sulfamoylphenyl}-2-phenylacetamide], the 50% inhibitory concentration (IC50) is more than 50000 nM and the Emax came to 23%.

With `CN1CCCC(Oc2ccc(NC(=O)Cc3ccccc3Cl)cc2S(N)(=O)=O)C1` (stereo not shown) [Example 220, 2-(2-Chlorophenyl)-N-{4-[(1-methylpiperidin-3-yl)oxy]-3-sulfamoylphenyl}acetamide], the half-maximal inhibitory concentration (IC50) came out at 3810 nM and the Emax turned out to be 77%.

Turning to `CN1CCC(Oc2ccc(NC(=O)Cc3ccccc3)cc2S(N)(=O)=O)C1` (stereo not shown) [Example 221, N-{4-[(1-Methylpyrrolidin-3-yl)oxy]-3-sulfamoylphenyl}-2-phenylacetamide], the IC50 was more than 50000 nM and the Emax worked out at 30%.

With `CN1CCC(Oc2ccc(NC(=O)Cc3ccccc3Cl)cc2S(N)(=O)=O)C1` (stereo not shown) [Example 222, 2-(2-Chlorophenyl)-N-{4-[(1-methylpyrrolidin-3-yl)oxy]-3-sulfamoylphenyl}acetamide], the IC50 is 8540 nM and 8060 nM and > 16000 nM; the Emax is 70%.

`NS(=O)(=O)c1cc(NC(=O)Cc2ccc(F)cc2)ccc1Oc1ccc(Cl)cc1` [Example 223, N-[4-(4-Chlorophenoxy)-3-sulfamoylphenyl]-2-(4-fluorophenyl)acetamide]: the half-inhibitory concentration (IC50) turned out to be 1850 nM and the Emax is 82%.

For the compound `N#Cc1ccccc1CC(=O)Nc1ccc(Oc2cccc(Cl)c2)c(S(N)(=O)=O)c1` [Example 225, N-[4-(3-Chlorophenoxy)-3-sulfamoylphenyl]-2-(2-cyanophenyl)acetamide], the IC50 is 192 nM and the Emax was 98%.

As to `N#Cc1cccc(CC(=O)Nc2ccc(Oc3cccc(Cl)c3)c(S(N)(=O)=O)c2)c1` [Example 226, N-[4-(3-Chlorophenoxy)-3-sulfamoylphenyl]-2-(3-cyanophenyl)acetamide], the concentration for half-maximal inhibition (IC50) came to 491 nM and the Emax amounted to 75%.

Take `NS(=O)(=O)c1cc(NC(=O)Cc2ccc(C(F)(F)F)cc2)ccc1Oc1ccc(Cl)cc1` [Example 227, N-[4-(4-Chlorophenoxy)-3-sulfamoylphenyl]-2-[4-(trifluoromethyl)phenyl]acetamide]: the IC50 was found to be 1770 nM and the Emax came to 69%.

`NS(=O)(=O)c1cc(NC(=O)Cc2ccc(Cl)cc2)ccc1Oc1ccc(Cl)cc1` [Example 228, N-[4-(4-Chlorophenoxy)-3-sulfamoylphenyl]-2-(4-chlorophenyl)acetamide]: the IC50 is 1590 nM and the Emax amounted to 58%.

As to `NS(=O)(=O)c1cc(NC(=O)Cc2ccccc2F)ccc1Oc1ccc(Cl)cc1` [Example 230, N-[4-(4-Chlorophenoxy)-3-sulfamoylphenyl]-2-(2-fluorophenyl)acetamide], the Emax was 50%.

As for `Cn1ccc(Oc2ccc(NC(=O)Cc3ccccc3Cl)cc2S(N)(=O)=O)n1` [Example 236, 2-(2-Chlorophenyl)-N-{4-[(1-methyl-1H-pyrazol-3-yl)oxy]-3-sulfamoylphenyl}acetamide], the half-maximal inhibitory concentration (IC50) was found to be 232 nM and the Emax stood at 77%.

Regarding `Cn1nccc1Oc1ccc(NC(=O)Cc2ccccc2Cl)cc1S(N)(=O)=O` [Example 237, 2-(2-Chlorophenyl)-N-{4-[(1-methyl-1H-pyrazol-5-yl)oxy]-3-sulfamoylphenyl}acetamide], the IC50 is 235 nM and the Emax was determined as 59%.

Turning to `CN1CCC(Oc2ccc(NC(=O)Cc3ccccc3Cl)cc2S(N)(=O)=O)CC1` [Example 238, 2-(2-Chlorophenyl)-N-{4-[(1-methylpiperidin-4-yl)oxy]-3-sulfamoylphenyl}acetamide], the half-maximal inhibitory concentration (IC50) was more than 16000 nM.

Turning to `Cc1sc(-c2cccnc2)nc1Oc1ccc(NC(=O)Cc2ccccc2Cl)cc1S(N)(=O)=O` [Example 239, 2-(2-Chlorophenyl)-N-(4-{[5-methyl-2-(pyridin-3-yl)-1,3-thiazol-4-yl]oxy}-3-sulfamoylphenyl)acetamide], the 50% inhibitory concentration (IC50) is 152 nM and the Emax worked out at 99%.

For the compound `Cc1cc(Oc2cccc(Cl)c2)c(S(N)(=O)=O)cc1NC(=O)Cc1ccccc1Cl` [Example 240, N-[4-(3-Chlorophenoxy)-2-methyl-5-sulfamoylphenyl]-2-(2-chlorophenyl)acetamide], the IC50 is 3040 nM and the Emax came to 86%.

`NS(=O)(=O)c1cc(NC(=O)Cc2ccccc2Cl)ccc1OC1CC[S+]([O-])C1` (stereo not shown) [Example 241, 2-(2-Chlorophenyl)-N-{4-[(1-oxidotetrahydrothiophen-3-yl)oxy]-3-sulfamoylphenyl}acetamide]: the concentration for half-maximal inhibition (IC50) is more than 16000 nM and the Emax amounted to 34%.

With `NS(=O)(=O)c1cc(NC(=O)Cc2c(Cl)cc(C(F)(F)F)cc2Cl)ccc1Oc1ccc(Cl)cc1` [Example 242, N-[4-(4-Chlorophenoxy)-3-sulfamoylphenyl]-2-[2,6-dichloro-4-(trifluoromethyl)phenyl]acetamide], the half-inhibitory concentration (IC50) was 2870 nM and > 16000 nM; the Emax is 71%.

Take `N#Cc1cc(Cl)c(CC(=O)Nc2ccc(Oc3ccc(Cl)cc3)c(S(N)(=O)=O)c2)cc1Cl` [Example 243, N-[4-(4-Chlorophenoxy)-3-sulfamoylphenyl]-2-(2,5-dichloro-4-cyanophenyl)acetamide]: the IC50 was 2720 nM and the Emax was 70%.

For `NS(=O)(=O)c1cc(NC(=O)Cc2ccccc2)ccc1OCC1CC1` [Example 245, N-[4-(Cyclopropylmethoxy)-3-sulfamoylphenyl]-2-phenylacetamide], the IC50 was 5970 nM and the Emax was determined as 68%.

In the case of `Cc1cc(C)cc(Oc2ccc(NC(=O)Cc3ccccc3)cc2S(N)(=O)=O)c1` [Example 246, N-[4-(3,5-Dimethylphenoxy)-3-sulfamoylphenyl]-2-phenylacetamide], the half-maximal inhibitory concentration (IC50) is 949 nM and the Emax was 94%.

On to `NS(=O)(=O)c1cc(NC(=O)Cc2ccccc2)ccc1Oc1ccc(F)cc1F` [Example 247, N-[4-(2,4-Difluorophenoxy)-3-sulfamoylphenyl]-2-phenylacetamide], for which the 50% inhibitory concentration (IC50) stood at 1110 nM and the Emax was 59%.

Take `NS(=O)(=O)c1cc(NC(=O)Cc2ccccc2)ccc1Oc1ccc(F)cc1` [Example 248, N-[4-(4-Fluorophenoxy)-3-sulfamoylphenyl]-2-phenylacetamide]: the IC50 is 1280 nM and the Emax amounted to 62%.

On to `NS(=O)(=O)c1cc(NC(=O)Cc2ccccc2)ccc1Oc1cccc(F)c1` [Example 249, N-[4-(3-Fluorophenoxy)-3-sulfamoylphenyl]-2-phenylacetamide], for which the half-inhibitory concentration (IC50) worked out at 544 nM and the Emax worked out at 73%.

Consider `COc1cccc(Oc2ccc(NC(=O)Cc3ccccc3)cc2S(N)(=O)=O)c1` [Example 250, N-[4-(3-Methoxyphenoxy)-3-sulfamoylphenyl]-2-phenylacetamide], for which the IC50 was determined as 439 nM and the Emax turned out to be 82%.

With `Cc1ccc(F)c(Oc2ccc(NC(=O)Cc3ccccc3)cc2S(N)(=O)=O)c1` [Example 251, N-[4-(2-Fluoro-5-methylphenoxy)-3-sulfamoylphenyl]-2-phenylacetamide], the half-maximal inhibitory concentration (IC50) turned out to be 392 nM and the Emax was determined as 100%.

Consider `NS(=O)(=O)c1cc(NC(=O)Cc2ccccc2)ccc1Oc1ccc(OC(F)(F)F)cc1` [Example 252, 2-Phenyl-N-{3-sulfamoyl-4-[4-(trifluoromethoxy)phenoxy]phenyl}acetamide], for which the IC50 was 6460 nM and the Emax was found to be 93%.

On to `NS(=O)(=O)c1cc(NC(=O)Cc2ccccc2)ccc1Oc1cccc(C(F)(F)F)c1` [Example 253, 2-Phenyl-N-{3-sulfamoyl-4-[3-(trifluoromethyl)phenoxy]phenyl}acetamide], for which the IC50 turned out to be 236 nM and the Emax is 71%.

For the compound `N#Cc1cccc(Oc2ccc(NC(=O)Cc3ccccc3)cc2S(N)(=O)=O)c1` [Example 255, N-[4-(3-Cyanophenoxy)-3-sulfamoylphenyl]-2-phenylacetamide], the IC50 amounted to 271 nM and the Emax is 64%.

The values above are taken from US20180338980A1, “AROMATIC SULFONAMIDE DERIVATIVES” (BAYER PHARMA AKTIENGESELLSCHAFT, priority 2015, published 2018).
